# Test results as given in ChEMBL document CHEMBL3885881, “DrugMatrix”.
# Species on record: Rattus norvegicus
# Experiment: DrugMatrix - Regimen: Daily Repeat
# Format: toxicity, organism-based, Sprague-Dawley
# Set-up: regimen Daily Repeat, gender Male, age 6-8 weeks
# Details: in vivo, po, route oral GAVAGE, vehicle 100 % WATER; for ABSOLUTE BASOPHIL / ABSOLUTE EOSINOPHIL / ABSOLUTE LYMPHOCYTE / ABSOLUTE MONOCYTE / ABSOLUTE SEGMENTED NEUTROPHIL / BASOPHIL / EOSINOPHIL / ERYTHROCYTE COUNT / HEMATOCRIT / HEMOGLOBIN / LEUKOCYTE COUNT / LYMPHOCYTE / MEAN CORPUSCULAR HEMOGLOBIN / MEAN CORPUSCULAR HEMOGLOBIN CONCENTRATION / MEAN CORPUSCULAR VOLUME / MONOCYTE / NEUTROPHIL / NUCLEATED RED BLOOD CELLS / PLATELET COUNT: tissue Blood; for ALANINE AMINOTRANSFERASE / ALBUMIN / ALKALINE PHOSPHATASE / ASPARTATE AMINOTRANSFERASE / BLOOD UREA NITROGEN / CARBON DIOXIDE / CHLORIDE / CHOLESTEROL / CREATINE PHOSPHOKINASE / CREATININE / GLUCOSE / LACTATE DEHYDROGENASE / LIPASE / PHOSPHORUS / POTASSIUM / SODIUM / TOTAL BILIRUBIN / TOTAL PROTEIN / URIC ACID: tissue Plasma
# [1] = 56 mg/kg, 120 h, dose level Low, time 5 day
# [2] = 476 mg/kg, 72 h, dose level High, time 3 day
# [3] = 476 mg/kg, 120 h, dose level High, time 5 day
compound,measurement,setting,value
CC[C@H]1OC(=O)[C@H](C)[C@@H](O[C@H]2C[C@@](C)(OC)[C@@H](O)[C@H](C)O2)[C@H](C)[C@@H](O[C@@H]2O[C@H](C)C[C@H](N(C)C)[C@H]2O)[C@](C)(OC)C[C@@H](C)C(=O)[C@H](C)[C@@H](O)[C@]1(C)O [CLARITHROMYCIN],ABSOLUTE BASOPHIL,[1],0 CELLS/uL
same,ABSOLUTE EOSINOPHIL,[1],40 CELLS/uL
same,ABSOLUTE LYMPHOCYTE,[1],7764 CELLS/uL
same,ABSOLUTE MONOCYTE,[1],32 CELLS/uL
same,ABSOLUTE SEGMENTED NEUTROPHIL,[1],364 CELLS/uL
same,BASOPHIL,[1],0%
same,EOSINOPHIL,[1],0.67%
same,ERYTHROCYTE COUNT,[1],5.84 x10E6/uL
same,HEMATOCRIT,[1],35.03%
same,HEMOGLOBIN,[1],13.63 G/DL
same,LEUKOCYTE COUNT,[1],8.2 x10E3/uL
same,LYMPHOCYTE,[1],94.67%
same,MEAN CORPUSCULAR HEMOGLOBIN,[1],23.37 pg
same,MEAN CORPUSCULAR HEMOGLOBIN CONCENTRATION,[1],38.9 G/DL
same,MEAN CORPUSCULAR VOLUME,[1],60.03 fL
same,MONOCYTE,[1],0.33%
same,NEUTROPHIL,[1],4.33%
same,NUCLEATED RED BLOOD CELLS,[1],0 /100WBC
same,PLATELET COUNT,[1],1127.33 x10E3/uL
same,ALANINE AMINOTRANSFERASE,[1],56 u/L
same,ALBUMIN,[1],3.97 G/DL
same,ALKALINE PHOSPHATASE,[1],322 u/L
same,ASPARTATE AMINOTRANSFERASE,[1],90.33 u/L
same,BLOOD UREA NITROGEN,[1],16.67 mg/dL
same,CARBON DIOXIDE,[1],34 mmol/L
same,CHLORIDE,[1],98.67 MEQ/L
same,CHOLESTEROL,[1],84 mg/dL
same,CREATINE PHOSPHOKINASE,[1],286 u/L
same,CREATININE,[1],0.11 mg/dL
same,GLUCOSE,[1],141 mg/dL
same,LACTATE DEHYDROGENASE,[1],125 u/L
same,LIPASE,[1],13 u/L
same,PHOSPHORUS,[1],11.17 mg/dL
same,POTASSIUM,[1],6.34 MEQ/L
same,SODIUM,[1],144.27 MEQ/L
same,TOTAL BILIRUBIN,[1],0.17 mg/dL
same,TOTAL PROTEIN,[1],5.97 G/DL
same,URIC ACID,[1],0.73 mg/dL
same,ABSOLUTE BASOPHIL,[2],0 CELLS/uL
same,ABSOLUTE EOSINOPHIL,[2],46 CELLS/uL
same,ABSOLUTE LYMPHOCYTE,[2],13692.67 CELLS/uL
same,ABSOLUTE MONOCYTE,[2],172 CELLS/uL
same,ABSOLUTE SEGMENTED NEUTROPHIL,[2],556 CELLS/uL
same,BASOPHIL,[2],0%
same,EOSINOPHIL,[2],0.33%
same,ERYTHROCYTE COUNT,[2],5.74 x10E6/uL
same,HEMATOCRIT,[2],36.57%
same,HEMOGLOBIN,[2],14.2 G/DL
same,LEUKOCYTE COUNT,[2],14.47 x10E3/uL
same,LYMPHOCYTE,[2],94.67%
same,MEAN CORPUSCULAR HEMOGLOBIN,[2],24.73 pg
same,MEAN CORPUSCULAR HEMOGLOBIN CONCENTRATION,[2],38.83 G/DL
same,MEAN CORPUSCULAR VOLUME,[2],63.7 fL
same,MONOCYTE,[2],1%
same,NEUTROPHIL,[2],4%
same,NUCLEATED RED BLOOD CELLS,[2],0 /100WBC
same,PLATELET COUNT,[2],1345 x10E3/uL
same,ALANINE AMINOTRANSFERASE,[2],55.33 u/L
same,ALBUMIN,[2],3.8 G/DL
same,ALKALINE PHOSPHATASE,[2],227.33 u/L
same,ASPARTATE AMINOTRANSFERASE,[2],72.33 u/L
same,BLOOD UREA NITROGEN,[2],8.33 mg/dL
same,CARBON DIOXIDE,[2],29.67 mmol/L
same,CHLORIDE,[2],99.33 MEQ/L
same,CHOLESTEROL,[2],68 mg/dL
same,CREATINE PHOSPHOKINASE,[2],191.67 u/L
same,CREATININE,[2],0.37 mg/dL
same,GLUCOSE,[2],161 mg/dL
same,LACTATE DEHYDROGENASE,[2],112 u/L
same,LIPASE,[2],28.67 u/L
same,PHOSPHORUS,[2],11.53 mg/dL
same,POTASSIUM,[2],6.1 MEQ/L
same,SODIUM,[2],142.2 MEQ/L
same,TOTAL BILIRUBIN,[2],0.13 mg/dL
same,TOTAL PROTEIN,[2],5.83 G/DL
same,URIC ACID,[2],1.23 mg/dL
same,ABSOLUTE BASOPHIL,[3],0 CELLS/uL
same,ABSOLUTE EOSINOPHIL,[3],0 CELLS/uL
same,ABSOLUTE LYMPHOCYTE,[3],10830 CELLS/uL
same,ABSOLUTE MONOCYTE,[3],144.67 CELLS/uL
same,ABSOLUTE SEGMENTED NEUTROPHIL,[3],592 CELLS/uL
same,BASOPHIL,[3],0%
same,EOSINOPHIL,[3],0%
same,ERYTHROCYTE COUNT,[3],5.53 x10E6/uL
same,HEMATOCRIT,[3],34.87%
same,HEMOGLOBIN,[3],13.93 G/DL
same,LEUKOCYTE COUNT,[3],11.57 x10E3/uL
same,LYMPHOCYTE,[3],94%
same,MEAN CORPUSCULAR HEMOGLOBIN,[3],25.2 pg
same,MEAN CORPUSCULAR HEMOGLOBIN CONCENTRATION,[3],40 G/DL
same,MEAN CORPUSCULAR VOLUME,[3],63.07 fL
same,MONOCYTE,[3],1%
same,NEUTROPHIL,[3],5%
same,NUCLEATED RED BLOOD CELLS,[3],0 /100WBC
same,PLATELET COUNT,[3],1171.67 x10E3/uL
same,ALANINE AMINOTRANSFERASE,[3],58 u/L
same,ALBUMIN,[3],3.67 G/DL
same,ALKALINE PHOSPHATASE,[3],256.67 u/L
same,ASPARTATE AMINOTRANSFERASE,[3],67 u/L
same,BLOOD UREA NITROGEN,[3],13.33 mg/dL
same,CARBON DIOXIDE,[3],34.67 mmol/L
same,CHLORIDE,[3],98 MEQ/L
same,CHOLESTEROL,[3],64.33 mg/dL
same,CREATINE PHOSPHOKINASE,[3],178.33 u/L
same,CREATININE,[3],0.18 mg/dL
same,GLUCOSE,[3],126.67 mg/dL
same,LACTATE DEHYDROGENASE,[3],105.33 u/L
same,LIPASE,[3],11.67 u/L
same,PHOSPHORUS,[3],9.63 mg/dL
same,POTASSIUM,[3],6.01 MEQ/L
same,SODIUM,[3],142.53 MEQ/L
same,TOTAL BILIRUBIN,[3],0.13 mg/dL
same,TOTAL PROTEIN,[3],5.9 G/DL
same,URIC ACID,[3],0.6 mg/dL
